From patent publication US20240391931A1 (Bristol-Myers Squibb Company, priority 2021, published 2024)

Assays:
[1] = target: T1, HER2 wildtype (WT) protein (Homo sapiens, UniProt P04626); assay: HER2 signaling (pHER2 Tyr1248/total HER2 MSD) in BT474 cells; format: cell-based; details: 1.5 hr compound, 1% FBS
T1 construct: BT474 and N87 cell lines which endogenously overexpress the HER2 wildtype (WT) protein; endogenous in cells; host or cells: BT474, N87
Summary of the method: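 BT474, N87 (HER2 WT) and NCI-H1781 (HER2 G776delinsVC) cells were treated for 1.5 h at 37° C in 1% FBS medium with compound at 0.0005–1.1 μM. pHER2 Tyr1248 was measured by MSD on whole-cell lysates and normalized to total HER2 as % DMSO. EC50 came from a variable-slope sigmoidal fit.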

EGFR WT = target: T2, EGFR WT (Homo sapiens, UniProt P00533); assay: Enzymatic assay EGFR WT (method c); format: biochemical; details: [EGFR WT]=2 nM, [ATP]=1 mM, [Peptide 22]=1 μM
T2 construct: purchased Thermo Fisher, Carlsbad, CA ERBB1 PR7295B
T2 sequence (P00533 25-1210): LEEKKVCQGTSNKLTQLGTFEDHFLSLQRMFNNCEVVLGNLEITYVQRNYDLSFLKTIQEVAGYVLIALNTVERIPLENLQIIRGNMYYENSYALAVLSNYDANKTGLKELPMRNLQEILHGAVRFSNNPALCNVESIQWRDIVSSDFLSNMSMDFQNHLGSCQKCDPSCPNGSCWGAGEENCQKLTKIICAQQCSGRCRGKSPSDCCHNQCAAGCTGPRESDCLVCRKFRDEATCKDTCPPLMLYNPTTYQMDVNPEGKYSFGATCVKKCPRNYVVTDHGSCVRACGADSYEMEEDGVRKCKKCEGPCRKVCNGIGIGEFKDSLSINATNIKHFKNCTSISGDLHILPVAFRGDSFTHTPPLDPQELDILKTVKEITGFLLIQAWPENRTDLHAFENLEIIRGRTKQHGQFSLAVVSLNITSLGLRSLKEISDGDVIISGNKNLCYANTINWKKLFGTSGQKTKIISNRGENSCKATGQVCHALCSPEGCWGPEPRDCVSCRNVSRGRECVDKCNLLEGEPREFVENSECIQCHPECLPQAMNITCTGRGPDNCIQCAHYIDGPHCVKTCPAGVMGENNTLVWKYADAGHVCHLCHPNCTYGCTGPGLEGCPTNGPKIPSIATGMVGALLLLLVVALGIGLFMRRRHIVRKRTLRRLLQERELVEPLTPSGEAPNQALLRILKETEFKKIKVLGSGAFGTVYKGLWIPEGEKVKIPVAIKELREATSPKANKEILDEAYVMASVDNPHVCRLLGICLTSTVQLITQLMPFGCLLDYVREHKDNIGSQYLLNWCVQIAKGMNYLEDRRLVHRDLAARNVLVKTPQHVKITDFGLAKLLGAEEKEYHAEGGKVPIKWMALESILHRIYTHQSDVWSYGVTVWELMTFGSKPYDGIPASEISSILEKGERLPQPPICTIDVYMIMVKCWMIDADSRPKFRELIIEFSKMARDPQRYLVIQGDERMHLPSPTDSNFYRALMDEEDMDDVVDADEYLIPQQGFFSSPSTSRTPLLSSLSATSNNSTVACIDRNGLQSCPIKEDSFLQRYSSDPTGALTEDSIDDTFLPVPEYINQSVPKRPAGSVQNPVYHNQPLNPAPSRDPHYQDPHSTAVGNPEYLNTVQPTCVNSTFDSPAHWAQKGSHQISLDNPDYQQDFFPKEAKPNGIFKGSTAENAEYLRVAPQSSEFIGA
Summary of the method: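 Initial rates over 0–3600 s, read as substrate-to-product conversion by capillary electrophoresis, were converted to percent inhibition and fitted with a variable-slope curve to give IC50. Conditions: EGFR WT 2 nM with 1 mM ATP; HER2 YVMA 5 nM or HER2 WT 12.5 nM, each with 25 μM ATP. All used 1 μM Peptide 22 in pH 7.5 HEPES/Mn/Mg buffer.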

T1 sequence (P04626 23-1255): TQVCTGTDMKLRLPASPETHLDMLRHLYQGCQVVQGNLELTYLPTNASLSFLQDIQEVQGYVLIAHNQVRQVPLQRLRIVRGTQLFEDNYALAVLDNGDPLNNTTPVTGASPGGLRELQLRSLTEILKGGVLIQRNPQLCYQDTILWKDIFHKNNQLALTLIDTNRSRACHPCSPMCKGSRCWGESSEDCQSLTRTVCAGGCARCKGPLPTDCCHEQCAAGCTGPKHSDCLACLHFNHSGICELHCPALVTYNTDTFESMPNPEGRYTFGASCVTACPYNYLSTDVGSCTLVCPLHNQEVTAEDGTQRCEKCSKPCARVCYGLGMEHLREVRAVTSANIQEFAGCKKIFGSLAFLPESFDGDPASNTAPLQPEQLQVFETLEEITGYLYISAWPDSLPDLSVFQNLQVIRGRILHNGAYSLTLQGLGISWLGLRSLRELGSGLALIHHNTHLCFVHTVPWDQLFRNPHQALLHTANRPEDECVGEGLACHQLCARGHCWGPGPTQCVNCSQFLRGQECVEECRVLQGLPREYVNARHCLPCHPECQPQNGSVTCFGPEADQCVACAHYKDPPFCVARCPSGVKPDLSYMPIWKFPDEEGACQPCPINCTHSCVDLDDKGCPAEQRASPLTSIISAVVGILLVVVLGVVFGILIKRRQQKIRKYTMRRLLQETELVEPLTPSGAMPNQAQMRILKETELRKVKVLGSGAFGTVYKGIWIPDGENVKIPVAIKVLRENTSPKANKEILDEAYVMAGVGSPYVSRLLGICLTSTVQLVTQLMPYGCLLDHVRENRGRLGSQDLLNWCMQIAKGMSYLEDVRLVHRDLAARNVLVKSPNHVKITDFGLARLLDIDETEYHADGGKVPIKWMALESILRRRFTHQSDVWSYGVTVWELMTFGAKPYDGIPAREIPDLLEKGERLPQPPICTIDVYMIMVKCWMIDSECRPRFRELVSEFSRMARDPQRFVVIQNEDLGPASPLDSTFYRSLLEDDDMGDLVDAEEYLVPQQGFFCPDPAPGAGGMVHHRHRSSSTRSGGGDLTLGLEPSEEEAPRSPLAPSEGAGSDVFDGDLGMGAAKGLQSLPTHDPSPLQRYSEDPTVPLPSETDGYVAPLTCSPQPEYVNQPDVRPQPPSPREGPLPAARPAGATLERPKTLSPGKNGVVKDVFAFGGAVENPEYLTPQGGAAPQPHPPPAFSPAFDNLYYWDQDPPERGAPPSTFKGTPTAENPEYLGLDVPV

Compound	EC50 [1]	IC50 (EGFR WT)
CNC(=O)CNC/C=C/C(=O)N1CCc2c(sc3ncnc(Nc4ccc(Oc5ccc(C)nc5)c(C)c4)c23)C1 [Compound 39]	0.1 to 0.35 µM	> 10 µM
Cc1ccc(Oc2ccc(Nc3ncnc4sc5c(c34)CCN(C(=O)/C=C/CNC3CC3)C5)cc2C)cn1 [Compound 40]	< 0.1 µM	1 to 10 µM
Cc1ccc(Oc2ccc(Nc3ncnc4sc5c(c34)CCN(C(=O)/C=C/CN3CCCC3C(N)=O)C5)cc2C)cn1 (centres unmarked) [Compound 41]	< 0.1 µM	1 to 10 µM
Cc1ccc(Oc2ccc(Nc3ncnc4sc5c(c34)CCN(C(=O)/C=C/CN3CCCOCC3)C5)cc2C)cn1 [Compound 42]	< 0.1 µM	> 10 µM
Cc1ccc(Oc2ccc(Nc3ncnc4sc5c(c34)CCN(C(=O)/C=C/CN3CC(O)CO3)C5)cc2C)cn1 (centres unmarked) [Compound 43]	0.35 to 1 µM	> 10 µM
Cc1ccc(Oc2ccc(Nc3ncnc4sc5c(c34)CCN(C(=O)/C=C/CN3C4CCC3CC4)C5)cc2C)cn1 [Compound 44]	< 0.1 µM	1 to 10 µM
Cc1ccc(Oc2ccc(Nc3ncnc4sc5c(c34)CCN(C(=O)/C=C/CNCCS(C)(=O)=O)C5)cc2C)cn1 [Compound 45]	< 0.1 µM	> 10 µM
CCN1CCN(C/C=C/C(=O)N2CCc3c(sc4ncnc(Nc5ccc(Oc6ccc(C)nc6)c(C)c5)c34)C2)CC1 [Compound 46]	< 0.1 µM	> 10 µM
Cc1ccc(Oc2ccc(Nc3ncnc4sc5c(c34)CCN(C(=O)/C=C/CNC3CCOC3)C5)cc2C)cn1 (centres unmarked) [Compound 47]	< 0.1 µM	1 to 10 µM
Cc1ccc(Oc2ccc(Nc3ncnc4sc5c(c34)CCN(C(=O)/C=C/CNCC3CN(C)CCO3)C5)cc2C)cn1 (centres unmarked) [Compound 48]	< 0.1 µM	> 10 µM
Cc1ccc(Oc2ccc(Nc3ncnc4sc5c(c34)CCN(C(=O)/C=C/CNCc3cc(C)n[nH]3)C5)cc2C)cn1 [Compound 49]	< 0.1 µM	1 to 10 µM
CC(=O)N1CCN(C/C=C/C(=O)N2CCc3c(sc4ncnc(Nc5ccc(Oc6ccc(C)nc6)c(C)c5)c34)C2)CC1 [Compound 51]	0.1 to 0.35 µM	> 10 µM
Cc1ccc(Oc2ccc(Nc3ncnc4sc5c(c34)CCN(C(=O)/C=C/CNCc3ccsc3)C5)cc2C)cn1 [Compound 52]	< 0.1 µM	1 to 10 µM
Cc1ccc(Oc2ccc(Nc3ncnc4sc5c(c34)CCN(C(=O)/C=C/CN3CC(O)C3)C5)cc2C)cn1 [Compound 53]	< 0.1 µM	> 10 µM
Cc1ccc(Oc2ccc(Nc3ncnc4sc5c(c34)CCN(C(=O)/C=C/CNC3CCC3)C5)cc2C)cn1 [Compound 54]	< 0.1 µM	> 10 µM
Cc1ccc(Oc2ccc(Nc3ncnc4sc5c(c34)CCN(C(=O)/C=C/CN3CC=CCC3)C5)cc2C)cn1 [Compound 55]	< 0.1 µM	> 10 µM
CON(C)C/C=C/C(=O)N1CCc2c(sc3ncnc(Nc4ccc(Oc5ccc(C)nc5)c(C)c4)c23)C1 [Compound 56]	0.35 to 1 µM	> 10 µM
Cc1ccc(Oc2ccc(Nc3ncnc4sc5c(c34)CCN(C(=O)/C=C/CN3CC4(C3)CS(=O)(=O)C4)C5)cc2C)cn1 [Compound 57]	< 0.1 µM	> 10 µM
Cc1ccc(Oc2ccc(Nc3ncnc4sc5c(c34)CCN(C(=O)/C=C/CN3CCN4C(=O)CCC4C3)C5)cc2C)cn1 (centres unmarked) [Compound 58]	0.1 to 0.35 µM	> 10 µM
COCCN1CCN(C/C=C/C(=O)N2CCc3c(sc4ncnc(Nc5ccc(Oc6ccc(C)nc6)c(C)c5)c34)C2)CC1 [Compound 59]	< 0.1 µM	> 10 µM
Cc1ccc(Oc2ccc(Nc3ncnc4sc5c(c34)CCN(C(=O)/C=C/CN3CCn4cc(C(F)(F)F)nc4C3)C5)cc2C)cn1 [Compound 61]	0.35 to 1 µM	> 10 µM
Cc1ccc(Oc2ccc(Nc3ncnc4sc5c(c34)CCN(C(=O)/C=C/CN3CCC(n4ccnc4)CC3)C5)cc2C)cn1 [Compound 62]	< 0.1 µM	> 10 µM
Cc1cc(Nc2ncnc3sc4c(c23)CCN(C(=O)/C=C/CN(C)C)C4)ccc1Oc1cccc(B(O)O)c1 [Compound 64, (E)-(3-(4-((7-(4-(dimethylamino)but-2-enoyl)-5,6,7,8-tetrahydropyrido[4′,3′:4,5]thieno[2,3-d]pyrimidin-4-yl)amino)-2-methylphenoxy)phenyl)boronic acid]	< 0.1 µM	1 to 10 µM
Cc1ccc(Oc2ccc(Nc3ncnc4sc5c(c34)CCN(C(=O)/C=C/CNCCO)C5)cc2C)cn1 [Compound 65]	< 0.1 µM	1 to 10 µM
Cc1ccc(Oc2ccc(Nc3ncnc4sc5c(c34)CCN(C(=O)/C=C/CN3C[C@H]4CC[C@@H](C3)O4)C5)cc2C)cn1 [Compound 66]	< 0.1 µM	> 10 µM
Cc1ccc(Oc2ccc(Nc3ncnc4sc5c(c34)CCN(C(=O)/C=C/CN3CCC4(CCOC4)C3)C5)cc2C)cn1 (centres unmarked) [Compound 67]	< 0.1 µM	> 10 µM
Cc1ccc(Oc2ccc(Nc3ncnc4sc5c(c34)CCN(C(=O)/C=C/CN[C@H]3CC[C@H](OC4CC4)CC3)C5)cc2C)cn1 [Compound 68]	< 0.1 µM	> 10 µM
Cc1ccc(Oc2ccc(Nc3ncnc4sc5c(c34)CCN(C(=O)/C=C/CN[C@H]3CC[C@H](OC(F)F)CC3)C5)cc2C)cn1 [Compound 69]	< 0.1 µM	1 to 10 µM
Cc1ccc(Oc2ccc(Nc3ncnc4sc5c(c34)CCN(C(=O)/C=C/CN[C@H]3CC[C@H](OCC(F)(F)F)CC3)C5)cc2C)cn1 [Compound 70]	< 0.1 µM	1 to 10 µM

Second part, the compound after the results:

EC50 [1]	IC50 (EGFR WT)	Compound
< 0.1 µM	> 10 µM	Cc1ccc(Oc2ccc(Nc3ncnc4sc5c(c34)C(C)CN(C(=O)C=CCN(C)C)C5)cc2C)cn1 (single isomer, unassigned) [Compound 105]
< 0.1 µM	> 10 µM	Cc1ccc(Oc2ccc(Nc3ncnc4sc5c(c34)C(C)CN(C(=O)C=CCN(C)C)C5)cc2C)cn1 (single isomer, unassigned) [Compound 106]
< 0.1 µM	1 to 10 µM	Cc1cc(Nc2ncnc3sc4c(c23)CCN(C(=O)/C=C/CN(C)C)C4)ccc1Oc1ccc2ncnn2c1 [Compound 3, (E)-1-(4-((4-([1,2,4]triazolo[1,5-a]pyridin-6-yloxy)-3-methylphenyl)amino)-5,8-dihydropyrido[4′,3′:4,5]thieno[2,3-d]pyrimidin-7(6H)-yl)-4-(dimethylamino)but-2-en-1-one]
< 0.1 µM	> 10 µM	C=CC(=O)N1CCc2c(sc3ncnc(Nc4ccc(Oc5ccc6ncnn6c5)c(Cl)c4)c23)C1 [Compound 4, 1-(4-((4-([1,2,4]triazolo[1,5-a]pyridin-6-yloxy)-3-chlorophenyl)amino)-5,8-dihydropyrido[4′,3′:4,5]thieno[2,3-d]pyrimidin-7(6H)-yl)prop-2-en-1-one]
< 0.1 µM	> 10 µM	CN(C)C/C=C/C(=O)N1CCc2c(sc3ncnc(Nc4ccc(Oc5ccc6ncnn6c5)c(Cl)c4)c23)C1 [Compound 5, (E)-1-(4-((4-([1,2,4]triazolo[1,5-a]pyridin-6-yloxy)-3-chlorophenyl)amino)-5,8-dihydropyrido[4′,3′:4,5]thieno[2,3-d]pyrimidin-7(6H)-yl)-4-(dimethylamino)but-2-en-1-one]
< 0.1 µM	1 to 10 µM	Cc1cc(Nc2ncnc3sc4c(c23)CCN(C(=O)/C=C/CN2CC3CCC(C3)C2)C4)ccc1Oc1ccc2ncnn2c1 [Compound 20]
< 0.1 µM	> 10 µM	Cc1ncc(Oc2ccc(Nc3ncnc4sc5c(c34)CCN(C(=O)/C=C/CN(C)C)C5)cc2C)cn1 [Compound 21, (E)-4-(dimethylamino)-1-(4-((3-methyl-4-((2-methylpyrimidin-5-yl)oxy)phenyl)amino)-5,8-dihydropyrido[4′,3′:4,5]thieno[2,3-d]pyrimidin-7(6H)-yl)but-2-en-1-one]
< 0.1 µM	1 to 10 µM	Cc1cc(Nc2ncnc3sc4c(c23)CCN(C(=O)/C=C/CN(C)C)C4)ccc1Oc1ccc2[nH]ncc2c1 [Compound 22, (E)-1-(4-((4-((1H-indazol-5-yl)oxy)-3-methylphenyl)amino)-5,8-dihydropyrido[4′,3′:4,5]thieno[2,3-d]pyrimidin-7(6H)-yl)-4-(dimethylamino)but-2-en-1-one]
< 0.1 µM	1 to 10 µM	Cc1cc(Nc2ncnc3sc4c(c23)CCN(C(=O)/C=C/CN(C)C)C4)ccc1Oc1ccc2cn[nH]c2c1 [Compound 23, (E)-1-(4-((4-((1H-indazol-6-yl)oxy)-3-methylphenyl)amino)-5,8-dihydropyrido[4′,3′:4,5]thieno[2,3-d]pyrimidin-7(6H)-yl)-4-(dimethylamino)but-2-en-1-one]
< 0.1 µM	> 10 µM	Cc1ccc(Oc2ccc(Nc3ncnc4sc5c(c34)CCN(C(=O)/C=C/CN3CC4CC3CO4)C5)cc2C)cn1 (centres unmarked) [Compound 26]
< 0.1 µM	> 10 µM	Cc1ccc(Oc2ccc(Nc3ncnc4sc5c(c34)CCN(C(=O)/C=C/CN(C)C(C)(C)C)C5)cc2C)cn1 [Compound 33]
< 0.1 µM	> 10 µM	Cc1ccc(Oc2ccc(Nc3ncnc4sc5c(c34)CCN(C(=O)/C=C/CN3CC4C(CO)C4C3)C5)cc2C)cn1 (centres unmarked) [Compound 34]
< 0.1 µM	1 to 10 µM	Cc1ccc(Oc2ccc(Nc3ncnc4sc5c(c34)CCN(C(=O)/C=C/CN(CCO)CCO)C5)cc2C)cn1 [Compound 37]
< 0.1 µM	> 10 µM	Cc1ccc(Oc2ccc(Nc3ncnc4sc5c(c34)CCN(C(=O)/C=C/CNC3COC3)C5)cc2C)cn1 [Compound 38]
